In PubChem BioAssay (NCI):
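Grown in 96-well plates, cells were treated for 48 hours with each compound at five concentrations. Insufficient inhibition: endpoint recorded as highest concentration tested. GI50: concentration for 50% inhibition of growth. TGI is the concentration that stops growth completely.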

What was measured:
Experiment in all cases: NCI-60 cell line screen, 48 h
[1] = tested on: 786-0 renal
[2] = tested on: A498 renal
[3] = tested on: HOP-92 NSCLC
[4] = tested on: K-562 leukemia
[5] = tested on: MCF7 breast
[6] = tested on: NCI-H460 lung
[7] = tested on: OVCAR-8 ovarian
[8] = tested on: SNB-75 CNS
[9] = tested on: SR leukemia
[10] = tested on: U251 CNS

Row | Compound | GI50 [1] | TGI [1] | GI50 [2] | TGI [2] | GI50 [3] | TGI [3] | GI50 [4] | TGI [4] | GI50 [5] | TGI [5] | GI50 [6] | TGI [6] | GI50 [7] | TGI [7] | GI50 [8] | TGI [8] | GI50 [9] | TGI [9] | GI50 [10] | TGI [10]
1 | Cn1c(=O)c2c(ncn2CC(=O)Nc2ccc(-c3ccccc3)nn2)n(C)c1=O | > 100 µM | > 100 µM | 54.1 µM | > 100 µM | > 100 µM | > 100 µM | > 100 µM | > 100 µM | > 100 µM | > 100 µM | > 100 µM | > 100 µM | > 100 µM | > 100 µM | > 100 µM | > 100 µM | 42.9 µM | > 100 µM | > 100 µM | > 100 µM
2 | O=C(NO)c1ccc(CN(c2cnccn2)c2cnccn2)cc1 | 15.7 µM | 35 µM | 10.3 µM | 28.3 µM | 16.4 µM | 35.1 µM | 13 µM | > 100 µM | 12.1 µM | > 100 µM | 14.8 µM | 43.6 µM | 3.75 µM | 17.2 µM | 14.6 µM | 38.7 µM | 6.22 µM | > 100 µM | 7.74 µM | 21.4 µM
3 | O=C(OCc1ccc2c(Cl)cc(Cl)c(O)c2n1)N1CCN(C(=O)c2cc3cc(F)ccc3[nH]2)CC1 | 4.3 µM | > 100 µM | 0.504 µM | 5.48 µM | 3.1 µM | > 100 µM | 0.825 µM | > 100 µM | 0.404 µM | > 100 µM | 0.918 µM | > 100 µM | 0.551 µM | > 100 µM | 2.85 µM | > 100 µM | 0.401 µM | > 100 µM | 2.55 µM | > 100 µM
4 | COCOc1ccc(C2(O)Oc3cc(OCOC)ccc3C2C)c(O)c1 (configuration not stated) | – | 31.6 µM | – | 28.8 µM | – | 30.5 µM | – | 44.7 µM | – | 27.9 µM | – | 27.1 µM | – | 32 µM | – | 30.4 µM | – | 75.1 µM | – | 28.2 µM
5 | CC1C(c2ccc3c(c2)OCO3)c2cc3c(cc2OC1N1CCOCC1)OCO3 (configuration not stated) | – | > 100 µM | – | 65.6 µM | – | 78.4 µM | – | 67.7 µM | – | 65.8 µM | – | > 80.1 µM | – | > 100 µM | – | 99.3 µM | – | > 80.2 µM | – | > 83.8 µM
6 | Nc1ccccc1SC1CC(=O)N(c2ccc(Cl)c(Cl)c2)C1=O (configuration not stated) | 27.3 µM | 90.3 µM | 4.88 µM | 37.2 µM | 14.9 µM | 42.1 µM | 15 µM | > 100 µM | 27.1 µM | > 100 µM | 32 µM | > 100 µM | 20 µM | 77.8 µM | 13.3 µM | 34.4 µM | 22.4 µM | > 100 µM | 21.1 µM | > 100 µM
7 | N#Cc1ccc(OC(=O)Nc2ccc(Cl)c(Cl)c2)cc1 | 4.83 µM | 61.2 µM | 1.44 µM | 6.92 µM | 1.9 µM | 7.34 µM | 3.4 µM | > 100 µM | 2.6 µM | 11.6 µM | 2.87 µM | 9.34 µM | 3.3 µM | 44.8 µM | 2.78 µM | 20.6 µM | 7.67 µM | 93.2 µM | 3.04 µM | 23.2 µM
8 | CC1=CC(=O)C(C(O)(C(F)(F)F)C(F)(F)F)C(C)(C)C1 (configuration not stated) | – | > 10 µM | – | > 10 µM | – | – | – | > 10 µM | – | > 10 µM | – | > 10 µM | – | > 10 µM | – | > 10 µM | – | > 10 µM | – | > 10 µM
9 | COc1ccc2c3c(Nc4ccc(/C(C)=N/O)cc4)[nH]c4ccccc4c-3c(N=O)c2c1 | 13.4 µM | 28.2 µM | 12.9 µM | 27.2 µM | 13.1 µM | 36 µM | 0.665 µM | 2.8 µM | 0.843 µM | > 100 µM | 29.5 µM | > 100 µM | 3.55 µM | 20.2 µM | 44.9 µM | 75.3 µM | 1.47 µM | 4.27 µM | 2.31 µM | 12.9 µM
10 | O=c1oc2ccc(Br)cc2c(=O)n1-c1ccc(F)cc1F | 3.23 µM | 11.6 µM | 1.16 µM | 3.02 µM | 0.425 µM | 4.74 µM | 2.4 µM | > 100 µM | 2.57 µM | > 100 µM | 2.79 µM | 25.6 µM | 2.81 µM | 24.2 µM | 1.02 µM | 3.98 µM | 2.67 µM | > 100 µM | 2.51 µM | 31.5 µM
11 | Cc1ccc(Nc2nnc(-c3ccc4c(c3)OCO4)o2)c(C)c1 | – | > 100 µM | – | > 100 µM | – | > 100 µM | – | > 100 µM | – | > 100 µM | – | > 100 µM | – | > 100 µM | – | > 100 µM | – | > 100 µM | – | > 100 µM
12 | Cc1cc(C)n(-c2nnc3n2N=C(c2ccc(-c4ccccc4)cc2)CS3)n1 | 3.95 µM | > 100 µM | 2.03 µM | 7.09 µM | 1.38 µM | 5.13 µM | 3.58 µM | > 100 µM | 2.84 µM | > 100 µM | 3.35 µM | > 100 µM | 3.51 µM | > 100 µM | 3.24 µM | 54.8 µM | 3.06 µM | > 100 µM | 3.4 µM | > 100 µM
13 | COc1ccc(Cc2cnc(NC(=O)c3ccc4c(c3)OCCO4)s2)cc1 | 0.0493 µM | > 74.3 µM | 0.0159 µM | 0.0592 µM | 3.62 µM | > 76.6 µM | 0.0157 µM | > 100 µM | 0.0307 µM | > 100 µM | 0.0344 µM | 26 µM | 0.0426 µM | > 100 µM | 0.0192 µM | 44 µM | 0.0114 µM | > 100 µM | 0.0388 µM | > 85.8 µM
14 | Cc1cc2c(nn1)-c1ccccc1C2=O | – | > 10 µM | – | > 10 µM | – | > 10 µM | – | > 10 µM | – | > 10 µM | – | > 10 µM | – | > 10 µM | – | – | – | > 10 µM | – | > 10 µM
15 | CC(O)CC(O)(C(F)(F)F)C(F)(F)F (configuration not stated) | – | > 10 µM | – | > 10 µM | – | – | – | > 10 µM | – | > 10 µM | – | > 10 µM | – | > 10 µM | – | > 10 µM | – | > 10 µM | – | > 10 µM
